In patent publication USRE40086E1, “Method for treating bacterial infection with novel 7-substituted-9-substituted amino 6-demethyl-6-deoxytetracyclines” (Wyeth Holdings Corporation, priority 1991, dated 2008):
Values after ≈ are worked out from the molar mass of the structure shown. Counter-ions that a name gives are not always drawn. Like-named read-outs stand apart in the source and are kept apart here.

Columns and labels:
[1] = system: tetracycline-susceptible E. coli; test: Resumption of bacterial growth after washing out the antibiotic (reversibility of binding); assay type: cell-based; details: 30 minutes at growth inhibitory concentrations, then centrifugation and fresh medium
Description: The antibiotics are added to exponentially growing cultures of tetracycline-susceptible E. coli at growth inhibitory concentrations. After 30 minutes, excess antibiotic is removed from the bacteria by centrifugation and the organism is resuspended in fresh growth medium. The ability of bacteria to resume growth is monitored. […] This reflects the different binding characteristics of the drugs.

[2] = system: E. coli cell-free ribosomes, strain MRE 600 (TC Sensitive Host); test: E. coli in vitro cell free protein translation system (Table VI); assay type: biochemical
Proteus mirabilis = test: MIC vs recent clinical and agricultural isolates (Table V, KK); assay type: cell-based; details: [26] tested
[3] = system: E. coli cell-free ribosomes, strain MRE 600 (tetM) (Tet M Host); test: E. coli in vitro cell free protein translation system (Table VI); assay type: biochemical
[4] = system: S. aureus UBMS 88-4 (Sensitive); test: MIC, agar dilution; assay type: cell-based; details: S. aureus UBMS 88-4 (Sensitive)
[5] = system: E. faecalis UBMS 90-7 (tetM); test: MIC, agar dilution; assay type: cell-based; details: Enterococcus faecalis
Citrobacter diversus = test: MIC vs recent clinical and agricultural isolates (Table V, KK); assay type: cell-based; details: [10] tested
Pseudomonas aeruginosa = test: as above; assay type: cell-based; details: [10] tested
Proteus vulgaris = test: as above; assay type: cell-based; details: [18] tested
[6] = system: S. aureus UBMS 90-3 (Sensitive); test: MIC, agar dilution; assay type: cell-based; details: Staphylococcus aureus, S. aureus UBMS 90-3 (Sensitive)
Enterobacter aerogenes = test: MIC vs recent clinical and agricultural isolates (Table V, KK); assay type: cell-based; details: [10] tested
[7] = system: Bacertoides fragilis group; test: as above; assay type: cell-based; details: [10] tested
Streptococcus pneumoniae = test: as above; assay type: cell-based; details: [10] tested
Klebsiella oxytoca = test: as above; assay type: cell-based; details: [10] tested
Streptococcus pyogenes = test: as above; assay type: cell-based; details: [10] tested
Xanthomonas maltophilia = test: as above; assay type: cell-based; details: [10] tested
Haemophilus influenzae [8] = test: as above; assay type: cell-based; details: [15] tested
[9] = system: Pasturella multocida (Agricultural & Clinical); test: as above; assay type: cell-based; details: [17] tested
[10] = system: S. aureus UBMS 90-1 (tetM); test: MIC, agar dilution; assay type: cell-based
[11] = system: S. aureus UBMS 88-5 (tetM); test: MIC, agar dilution; assay type: cell-based
Moraxella catarrhalis = test: MIC vs recent clinical and agricultural isolates (Table V, KK); assay type: cell-based; details: [18] tested
Enterococcus faecium [12] = test: as above; assay type: cell-based; details: [10] tested
E. coli UBMS 90-4 (tetM) = test: MIC, agar dilution; assay type: cell-based; details: Escherichia coli
[13] = system: Staphylococcus aureus, methicillin-susceptible; test: MIC vs recent clinical and agricultural isolates (Table V, KK); assay type: cell-based; details: [15] tested
Clostridium perfringens = assay type: cell-based; details: [16] tested
Listeria monocytogenes = test: MIC vs recent clinical and agricultural isolates (Table V, KK); assay type: cell-based; details: [8] tested
[14] = system: E. faecalis UBMS 90-6 (tetM); test: MIC, agar dilution; assay type: cell-based; details: Enterococcus faecalis
[15] = system: N. gonorrhoeae 6418 (tetM); test: MIC, agar dilution; assay type: cell-based; details: Neisseria gonorrhoeae
[16] = system: Bordetella bronchiseptica (Agricultural); test: MIC vs recent clinical and agricultural isolates (Table V, KK); assay type: cell-based; details: [10] tested
Citrobacter freundii = test: as above; assay type: cell-based; details: [10] tested
Enterobacter cloacae = test: as above; assay type: cell-based; details: [10] tested
Streptococcus agalactiae = test: as above; assay type: cell-based; details: [10] tested
Enterococcus faecalis [17] = test: as above; assay type: cell-based; details: [10] tested
[18] = system: E. coli UBMS 89-2 (Sensitive); test: MIC, agar dilution; assay type: cell-based; details: Escherichia coli
Bacteroides spp. = test: MIC against clinical isolates (Table V, A and O); assay type: cell-based
E. coli UBMS 88-1 (tetB) = test: MIC, agar dilution; assay type: cell-based; details: Escherichia coli, E. coli UBMS 88-1 (tetB)
S. aureus UBMS 90-1 = test: In vivo antibacterial evaluation, acute lethal infection in mice; details: Staphylococcus aureus, UBMS901, sc, read-out: ED50, median effective dose protecting 50% of the infected mice; mice infected with S. aureus UBMS 90-1 (tetM), single subcutaneous dosing
Excerpt: (§1) In Vivo Antibacterial Evaluation (Table VII)

S. aureus UBMS 90-2 = test: as above; details: Staphylococcus aureus, UBMS902, sc, read-out: ED50, median effective dose protecting 50% of the infected mice; mice infected with S. aureus UBMS 90-2 (tetM), single subcutaneous dosing
Excerpt: as §1

Enterococcus faecalis [19] = test: MIC against clinical isolates (Table V, A and O); assay type: cell-based
[20] = system: S. haemolyticus AVAH 88-3; test: MIC, agar dilution; assay type: cell-based; details: Staphylococcus haemolyticus, AVAH883
Neisseria gonorrhoeae = test: MIC against clinical isolates (Table V, A and O); assay type: cell-based
E. coli ATCC 25922 = test: MIC, agar dilution; assay type: cell-based; details: Escherichia coli, ATCC25922
[21] = system: S. aureus IVES 1983 (meth. resistant); test: MIC, agar dilution; assay type: cell-based; details: Staphylococcus aureus
E. coli UBMS 89-1 (tetM) = test: MIC, agar dilution; assay type: cell-based; details: Escherichia coli
Proteus spp. indole+ = test: MIC against clinical isolates (Table V, A and O); assay type: cell-based
Escherichia coli = test: MIC against clinical isolates (Table V, A and O); assay type: cell-based; details: Escherichia coli
[22] = system: S. aureus Smith (Sensitive); test: MIC, agar dilution; assay type: cell-based; details: Staphylococcus aureus
E. faecalis 12201 = test: MIC, agar dilution; assay type: cell-based; details: Enterococcus faecalis, 12201
[23] = system: E. coli UBMS 88-2 (Sensitive); test: MIC, agar dilution; assay type: cell-based; details: Escherichia coli
Haemophilus influenzae [24] = test: MIC against clinical isolates (Table V, A and O); assay type: cell-based; details: (18) tested
E. faecalis ATCC 29212 = test: MIC, agar dilution; assay type: cell-based; details: Enterococcus faecalis, ATCC29212
[25] = system: N. gonorrhoeae IL 611 (Sensitive); test: MIC, agar dilution; assay type: cell-based; details: Neisseria gonorrhoeae
[26] = system: S. aureus IVES 2943 (meth. resistant); test: MIC, agar dilution; assay type: cell-based; details: Staphylococcus aureus
[27] = system: S. aureus ATCC 29213 (Sensitive); test: MIC, agar dilution; assay type: cell-based; details: Staphylococcus aureus, ATCC29213
Klebsiella pneumoniae = test: MIC against clinical isolates (Table V, A and O); assay type: cell-based; details: Klebsiella pneumoniae
[28] = system: S. aureus UBMS 90-2 (tetM); test: MIC, agar dilution; assay type: cell-based; details: Staphylococcus aureus, S. aureus UBMS 90-2 (tetM)
[29] = system: S. aureus UBMS 88-7 (tetK); test: MIC, agar dilution; assay type: cell-based; details: Staphylococcus aureus
Enterococcus faecium [30] = test: MIC against clinical isolates (Table V, A and O); assay type: cell-based

## CN(C)c1cc(NC=O)c(O)c2c1CC1CC3C(N(C)C)C(O)=C(C(N)=O)C(=O)C3(O)C(O)=C1C2=O (stereo not shown)
[1]
  ability of bacteria to resume growth after excess antibiotic is removed by washing: bacterial growth resumed when the compound was removed

## CN(C)[C@@H]1C(O)=C(C(N)=O)C(=O)[C@@]2(O)C(O)=C3C(=O)c4c(O)cccc4[C@@](C)(O)[C@H]3C[C@@H]12 [TC, Tetracycline hydrochloride]
[2]
  IC50, concentration of antibiotic required to inhibit protein synthesis by 50% compared to a drug-free control: 0.6 µg/mL
Proteus mirabilis
  MIC (range over isolates): 0.5 to 64 µg/mL
[3]
  IC50, concentration of antibiotic required to inhibit protein synthesis by 50% compared to a drug-free control: 2.0 µg/mL
[4]; Staphylococcus aureus, read-out: MIC
  MIC: 0.12 µg/mL
[5]
  MIC: 32 µg/mL
Citrobacter diversus
  MIC (range over isolates): 0.5 to 4 µg/mL
Pseudomonas aeruginosa
  MIC (range over isolates): 2 to 32 µg/mL
Proteus vulgaris
  MIC (range over isolates): 0.25 to 64 µg/mL
[6]; read-out: MIC
  MIC: 0.12 µg/mL
Enterobacter aerogenes
  MIC (range over isolates): 0.5 to 1 µg/mL
[7]
  MIC (range over isolates): 0.25 to 32 µg/mL
Streptococcus pneumoniae
  MIC (range over isolates): 0.12 to 2 µg/mL
Klebsiella oxytoca
  MIC (range over isolates): 0.5 to 1 µg/mL
Streptococcus pyogenes
  MIC (range over isolates): 0.12 to 16 µg/mL
Xanthomonas maltophilia
  MIC (range over isolates): 8 to 16 µg/mL
Haemophilus influenzae [8]
  MIC (range over isolates): 1 to 32 µg/mL
[9]
  MIC (range over isolates): 0.06 to 16 µg/mL
[10]; Staphylococcus aureus
  MIC: 32 µg/mL
[11]; Staphylococcus aureus
  MIC: 32 µg/mL
Moraxella catarrhalis
  MIC (range over isolates): 0.06 to 0.5 µg/mL
Enterococcus faecium [12]
  MIC (range over isolates): 0.12 to 64 µg/mL
E. coli UBMS 90-4 (tetM)
  MIC: 64 µg/mL
[13]
  MIC (range over isolates): 0.12 to 1 µg/mL
Clostridium perfringens
  MIC (range over isolates): 0.015 to 16 µg/mL
Listeria monocytogenes
  MIC (range over isolates): 0.12 to 0.5 µg/mL
[14]
  MIC: 32 µg/mL
[15]
  MIC: > 32 µg/mL
[16]
  MIC (range over isolates): 0.12 to 0.25 µg/mL
Citrobacter freundii
  MIC (range over isolates): 0.5 to 16 µg/mL
Enterobacter cloacae
  MIC (range over isolates): 0.5 to 2 µg/mL
Streptococcus agalactiae
  MIC (range over isolates): 0.25 to 64 µg/mL
Enterococcus faecalis [17]
  MIC (range over isolates): 0.12 to 64 µg/mL

## polymyxin [reference compound]
[1]
  ability of bacteria to resume growth after excess antibiotic is removed by washing: continues to prevent bacterial growth even when excess antibiotic is removed

## CN(C)c1cc(NC=O)c(O)c2c1CC1CC3C(N(C)C)C(O)=C(C(N)=O)C(=O)C3(O)C(O)=C1C2=O (stereo not shown) [Compound A, 7-(Dimethylamino)-9-(formylamino)-6-demethyl-6-deoxytetracycline]
[2]
  IC50, concentration of antibiotic required to inhibit protein synthesis by 50% compared to a drug-free control: <0.3 µg/mL
[3]
  IC50, concentration of antibiotic required to inhibit protein synthesis by 50% compared to a drug-free control: 0.4 µg/mL
[4]
  MIC: <0.015 µg/mL
[4]; Staphylococcus aureus
  MIC: 0.015 µg/mL (≈ 0.03 µM)
[5]
  MIC: 0.5 µg/mL (≈ 0.999 µM)
[18]
  MIC: 0.12 µg/mL (≈ 0.24 µM)
Bacteroides spp.; Bacteroides
  MIC50: 0.25 µg/mL (≈ 0.499 µM)
  MIC90: 2 µg/mL (≈ 4 µM)
Bacteroides spp.; Bacteroides spp. clinical isolates, (15) tested
  MIC Range: >0.15 to 4.00 µg/mL
[6]
  MIC: ≤ 0.015 µg/mL
E. coli UBMS 88-1 (tetB)
  MIC: 32 µg/mL (≈ 63.9 µM)
S. aureus UBMS 90-1
  ED50: 0.22 mg/kg
S. aureus UBMS 90-2
  ED50: 0.49 mg/kg
Enterococcus faecalis [19]; Enterococcus faecalis
  MIC50: 0.12 µg/mL (≈ 0.24 µM)
  MIC90: 1 µg/mL (≈ 2 µM)
Enterococcus faecalis [19]; Enterococcus faecalis clinical isolates, (14) tested
  MIC Range: <0.015 to 2.00 µg/mL
[20]
  MIC: 0.03 µg/mL (≈ 0.0599 µM)
Neisseria gonorrhoeae; Neisseria gonorrhoeae
  MIC50: 0.03 µg/mL (≈ 0.0599 µM)
  MIC90: 1 µg/mL (≈ 2 µM)
Neisseria gonorrhoeae; Neisseria gonorrhoeae clinical isolates, (9) tested
  MIC Range: 0.015 to 1.00 µg/mL
E. coli ATCC 25922
  MIC: 0.06 µg/mL (≈ 0.12 µM)
[21]
  MIC: 8 µg/mL (≈ 16 µM)
E. coli UBMS 89-1 (tetM)
  MIC: 0.12 µg/mL (≈ 0.24 µM)
[10]; S. aureus UBMS 90-1 (tetM)
  MIC: 0.12 µg/mL (≈ 0.24 µM)
[10]; Staphylococcus aureus, S. aureus UBMS 90-1 (tetM)
  MIC: 0.06 µg/mL (≈ 0.12 µM)
[11]; S. aureus UBMS 88-5 (tetM)
  MIC: 0.03 µg/mL (≈ 0.0599 µM)
[11]; Staphylococcus aureus, S. aureus UBMS 88-5 (tetM)
  MIC: 0.06 µg/mL (≈ 0.12 µM)
Proteus spp. indole+
  MIC50: 2 µg/mL (≈ 4 µM)
  MIC90: > 32 µg/mL
Escherichia coli
  MIC50: 0.25 µg/mL (≈ 0.499 µM)
  MIC90: > 32 µg/mL
[22]
  MIC: ≤ 0.015 µg/mL
E. faecalis 12201
  MIC: 0.12 µg/mL (≈ 0.24 µM)
[23]
  MIC: 0.12 µg/mL (≈ 0.24 µM)
E. coli UBMS 90-4 (tetM)
  MIC: 1 µg/mL (≈ 2 µM)
Haemophilus influenzae [24]
  MIC50: 0.06 µg/mL (≈ 0.12 µM)
  MIC90: 0.06 µg/mL (≈ 0.12 µM)
  MIC Range: <0.008 to 0.06 µg/mL
E. faecalis ATCC 29212
  MIC: ≤ 0.015 µg/mL
[25]
  MIC: 0.06 µg/mL (≈ 0.12 µM)
[14]
  MIC: 0.12 µg/mL (≈ 0.24 µM)
[15]
  MIC: 1 µg/mL (≈ 2 µM)
[26]
  MIC: 4 µg/mL (≈ 7.99 µM)
[27]
  MIC: ≤ 0.015 µg/mL
Klebsiella pneumoniae
  MIC50: 0.5 µg/mL (≈ 0.999 µM)
  MIC90: 0.5 µg/mL (≈ 0.999 µM)
[28]
  MIC: 0.03 µg/mL (≈ 0.0599 µM)
[29]
  MIC: 2 µg/mL (≈ 4 µM)
Enterococcus faecium [30]; Enterococcus faecium
  MIC50: 0.06 µg/mL (≈ 0.12 µM)
  MIC90: 2 µg/mL (≈ 4 µM)
Enterococcus faecium [30]; Enterococcus faecium clinical isolates, (11) tested
  MIC Range: <0.015 to 2.00 µg/mL
